From patent publication US8173651B2, “Pyridine compounds” (Synta Pharmaceuticals Corporation, priority 2003, dated 2012) come the findings set out here.

For assay [1], the system named is IL-12 production in human PBMC or THP-1 cells. In words: Human in vitro assay: inhibition of IL-12 production (ELISA) in stimulated PBMC or THP-1 cells. Format: cell-based. To be noted: IFNγ plus LPS or SAC stimulation. The text has this:
The biological activities of a heterocyclic compound can be evaluated by a number of cell-based assays. One of such assays can be conducted using cells from human peripheral blood mononuclear cells (PBMC) or human monocytic cell line (THP-1). The cells are stimulated with a combination of human interferon-γ (IFNγ) and lipopolysaccharide or a combination of IFNγ and Staphylococcus aureus Cowan I in the presence of a test compound. The level of inhibition of IL-12 production can be measured by determining the amount of p70 by using a sandwich ELISA assay with anti-human IL-12 antibodies. IC50 of the test compound can then be determined. Specifically, PBMC or THP-1 cells are incubated with the test compound. Cell viability was assessed using the bioreduction of MTS [3-(4,5-dimethylthiazol-2-yl)-5-(3-carboxymethoxyphenyl)-2-(4-sulfophenyl)-2H-tetrazolium] (Promega, Madison, Wis.).
Reagents. Staphylococcus aureus Cowan I (SAC) is obtained from Calbiochem (La Jolla, Calif.), and lipopolysaccharide (LPS, Serratia marscencens) is obtained from Sigma (St. Louis, Mo.). Human and mouse recombinant IFNγ are purchased from Boehringer Mannheim (Mannheim, Germany) and Pharmingen (San Diego, Calif.), respectively.
Human In Vitro Assay. Human PBMC were isolated by centrifugation using Ficoll-Paque (Pharmacia Biotech, Uppsala, Sweden) and prepared in RPMI medium supplemented with 10% fetal calf serum (FCS), 100 U/mL penicillin, and 100 μg/mL streptomycin. PBMC were plated in wells of a 96-well plate at a concentration of 5×10^5 cells/well, and primed by adding IFNγ (30 U/mL) for 22 h and stimulated by adding LPS (1 vg/mL), or by adding IFNγ (100 U/mL) and then stimulated by adding SAC (0.01%). A test pyridine compound was dissolved in DMSO, and added to wells of the 96-well plate. The final DMSO concentration was adjusted to 0.25% in all cultures, including the compound-free control. Human THP-1 cells were plated in wells, primed by adding IFNγ (100 U/mL) for 22 h and stimulated by adding SAC (0.025%) in the presence of different concentrations of the pyridine compound. Cell-free supernatants were taken 18 h later for measurement of cytokines. Cell viability was assessed using the bioreduction of MTS. Cell survival was estimated by determining the ratio of the absorbance in compound-treated groups versus compound-free control.
The supernatant was assayed for the amount of IL-12p40, IL-12p70, or IL-10 by using a sandwich ELISA with anti-human antibodies, i.e., a Human IL-12 p40 ELISA kit from R&D Systems (Berkeley, Calif.), and a Human IL-12 p70 or IL-10 ELISA kit from Endogen (Cambridge, Mass.). Assays were based on the manufacturer's instructions.
The biological activities of pyridine compounds were tested on human PBMC or THP-1 cells.
On the technique in general: ELISA stands for enzyme-linked immunosorbent assay.

The test system of assay [2] is adjuvant arthritis (AA) in female Lewis rats. The experiment in a line: In vivo adjuvant arthritis assay in rats. To be noted: oral, once a day for 7 days (day 7-14); dose-dependent; experiments repeated four times; FIG. 1. More on the design: species or system rat. How it is done: Treatment of adjuvant arthritis in rats: Adjuvant arthritis (AA) was induced in female Lewis rats by the intracutaneous injection (base of the tail) of 0.1 mL of a 10 mg/mL bacterial suspension made from ground, heat-killed Mycobacterium tuberculosis H37Ra suspended in incomplete Freund's adjuvant. Rats were given a test compound orally once a day for 7 days (day 7-14), starting day 7 after mycobacterium induction. The development of polyarthritis was monitored daily by macroscopic inspection and assignment of an arthritis index to each animal, during the critical period (days 10 to 25 post-immunization).
The intensity of polyarthritis was scored according to the following scheme: (a) Grade each paw from 0 to 3 based on erythema, swelling, and deformity of the joints: 0 for no erythema or swelling; 0.5 if swelling is detectable in at least one joint; 1 for mild swelling and erythema; 2 for swelling and erythema of both tarsus and carpus; and 3 for ankylosis and bony deformity.
Maximum score for all 4 paws was thus 12. (b) Grade for other parts of the body: for each ear, 0.5 for redness and another 0.5 if knots are present; 1 for connective tissue swelling (saddle nose); and 1 for the presence of knots or kinks in the tail. The highest possible arthritic index was 16.
Experiments with the AA model were repeated four times.

In general, IC50 refers to the concentration at which inhibition is half-maximal.

On to `COc1ccc(CCOc2cc(NN=Cc3c[nH]c4ccccc34)cc(N3CCOCC3)n2)cc1OC` [Compound 1, N-{2-[2-(3,4-Dimethoxy-phenyl)-ethoxy]-6-morpholin-4-yl-pyridin-4-yl}-N′-(1H-indol-3-ylmethylene)-hydrazine], for which the IC50 in assay [1] was 10 nM.

Regarding `COc1ccc(CCOc2cc(N3CCOCC3)cc(NN=Cc3c[nH]c4ccccc34)n2)cc1OC` [Compound 2, N-{6-[2-(3,4-Dimethoxy-phenyl)-ethoxy]-4-morpholin-4-yl-pyridin-2-yl}-N′-(1H-indol-3-ylmethylene)-hydrazine], the IC50 in assay [1] turned out to be 5 nM.

With `COc1ccc(CCOc2cc(NN=Cc3c[nH]c4ccccc34)nc(N3CCOCC3)c2)cc1OC` [Compound 3, N-{4-[2-(3,4-Dimethoxy-phenyl)-ethoxy]-6-morpholin-4-yl-pyridin-2-yl}-N′-(1H-indol-3-ylmethylene)-hydrazine], the IC50 in assay [1] is 800 nM. Still for that read-out and setting: to `COc1ccc(CCOc2cc(N3CCOCC3)cc(Nc3ccc4[nH]c(C)c(C)c4c3)n2)cc1OC` [Compound 4, {6-[2-(3,4-Dimethoxy-phenyl)-ethoxy]-4-morpholin-4-yl-pyridin-2-yl}-(2,3-dimethyl-1H-indol-5-yl)-amine] belongs 197 nM; to `COc1ccc(CCOc2cc(NN=Cc3cccc(C)c3)nc(N3CCOCC3)c2)cc1OC` [Compound 5, N-{4-[2-(3,4-Dimethoxy-phenyl)-ethoxy]-6-morpholin-4-yl-pyridin-2-yl}-N′-(3-methyl-benzylidene)-hydrazine], 2000 nM; to `COc1ccc(CCOc2cc(NN=Cc3cccc(C)c3)cc(N3CCOCC3)n2)cc1OC` [Compound 6, N-{2-[2-(3,4-Dimethoxy-phenyl)-ethoxy]-6-morpholin-4-yl-pyridin-4-yl}-N′-(3-methyl-benzylidene)-hydrazine], 5 nM. In the case of `COc1ccc(CCOc2cc(N3CCOCC3)cc(NN=Cc3cccc(C)c3)n2)cc1OC` [Compound 7, N-{6-[2-(3,4-Dimethoxy-phenyl)-ethoxy]-4-morpholin-4-yl-pyridin-2-yl}-N′-(3-methyl-benzylidene)-hydrazine], the half-inhibitory concentration (IC50) in assay [1] was 14.1 nM. Same read-out and setting: with `COc1ccc(CCOc2cc(Nc3ccc4[nH]c(C)c(C)c4c3)cc(N3CCOCC3)n2)cc1OC` [Compound 8, {2-[2-(3,4-Dimethoxy-phenyl)-ethoxy]-6-morpholin-4-yl-pyridin-4-yl}-(2,3-dimethyl-1H-indol-5-yl)-amine] the figure was 28 nM; with `COc1ccc(CCOc2cc(Nc3ccc4[nH]c(C)c(C)c4c3)nc(N3CCOCC3)c2)cc1OC` [Compound 9, {4-[2-(3,4-Dimethoxy-phenyl)-ethoxy]-6-morpholin-4-yl-pyridin-2-yl}-(2,3-dimethyl-1H-indol-5-yl)-amine], 350 nM. For `COc1ccc(CCOc2cc(Nc3cccc(C)c3)nc(N3CCOCC3)c2)cc1OC` [Compound 10, {4-[2-(3,4-Dimethoxy-phenyl)-ethoxy]-6-morpholin-4-yl-pyridin-2-yl}-m-tolyl-amine], the IC50 in assay [1] came out at 5000 nM. `Cc1cccc(C=NNc2cc(OCCN3CCOC3=O)cc(N3CCOCC3)n2)c1` [Compound 11, 3-(2-{2-[N′-(3-methyl-benzylidene)-hydrazino]-6-morpholin-4-yl-pyridin-4-yloxy}-ethyl)oxazolidin-2-one]: in assay [1], the IC50 was found to be 927 nM. Same read-out and setting: to `Cc1cccc(C=NNc2nc(OCCN3CCOCC3)c(F)c(N3CCOCC3)c2F)c1` [Compound 12, N-[3,5-Difluoro-4-morpholin-4-yl-6-(2-morpholin-4-yl-ethoxy)-pyridin-2-yl]-N′-(3-methyl-benzylidene)-hydrazine] belongs over 1000 nM. `Cc1cccc(/C=N/Nc2c(F)c(OCCN3CCOCC3)nc(N3CCOCC3)c2F)c1` [Compound 13, N-[3,5-Difluoro-2-morpholin-4-yl-6-(2-morpholin-4-yl-ethoxy)-pyridin-4-yl]-N′-(3-methyl-benzylidene)-hydrazine]: in assay [1], the IC50 is 148 nM. `Cc1cccc(/C=N/Nc2cc(N3CCOCC3)cc(OCCN3CCOCC3)n2)c1` [Compound 14, N-(3-Methyl-benzylidene)-N′-[4-morpholin-4-yl-6-(2-morpholin-4-yl-ethoxy)-pyridin-2-yl]-hydrazine]: in assay [1], the IC50 was 25 nM. For the same compound, in assay [2], the arthritic score entry is on record as “reproducibly reduced the arthritic score” and the development of polyarthritis result is recorded as “delayed the development of polyarthritis”.

With `C(=N\Nc1cc(N2CCOCC2)cc(OCCN2CCOCC2)n1)/c1c[nH]c2ccccc12` [Compound 16, N-(1H-Indol-3-ylmethylene)-N′-[4-morpholin-4-yl-6-(2-morpholin-4-yl-ethoxy)-pyridin-2-yl]-hydrazine], the IC50 in assay [1] stood at 36.6 nM.

Regarding `Cc1cccc(/C=N/N(C)c2cc(N3CCOCC3)cc(OCCN3CCOCC3)n2)c1` [Compound 17, N-Methyl-N′-(3-methyl-benzylidene)-N-[4-morpholin-4-yl-6-(2-morpholin-4-yl-ethoxy)-pyridin-2-yl]-hydrazine], the IC50 in assay [1] came to 14.2 nM. Turning to `Cc1cccc(/C=N/Nc2cc(OCCN3CCOC3=O)cc(N3CCOCC3)n2)c1` [Compound 18, 3-(2-{2-[N′-(3-Methyl-benzylidene)-hydrazino]-6-morpholin-4-yl-pyridin-4-yloxy}-ethyl)-oxazolidin-2-one], the concentration for half-maximal inhibition (IC50) in assay [1] is 927 nM. On the same count and under the same terms, with `C(=N\Nc1cc(N2CCOCC2)cc(OCCN2CCOCC2)n1)/c1ccoc1` [Compound 19, N-Furan-3-ylmethylene-N′-[4-morpholin-4-yl-6-(2-morpholin-4-yl-ethoxy)-pyridin-2-yl]-hydrazine] the figure was 5000 nM; with `Cc1ccc(N)c(/C=N/Nc2cc(N3CCOCC3)cc(OCCN3CCOCC3)n2)c1` [Compound 20, 4-Methyl-2-{[4-morpholin-4-yl-6-(2-morpholin-4-yl-ethoxy)-pyridin-2-yl]-hydrazonomethyl}-phenylamine], 11.4 nM; with `Cc1cccc(/C=N/Nc2cc(N3CCOCC3)cc(OCCN3CCOCC3)[n+]2[O-])c1` [Compound 21, N-(3-Methyl-benzylidene)-N′-[4-morpholin-4-yl-6-(2-morpholin-4-yl-ethoxy)-1-oxy-pyridin-2-yl]-hydrazine], 86 nM.
